Measured values: US20110088107A1, “COMPOSITIONS AND METHODS FOR DERIVING OR CULTURING PLURIPOTENT CELLS” (priority 2009, published 2011)

What was measured:
129 EpiSCs = assay: Conversion of EpiSCs into ICM-like iPS cells; format: cell-based, mouse; settings: medium (mESM) supplemented, no transgene
Text: FIGS. 24(A)-24(B) show small molecule conversion of distinct pluripotent states. ([…] derived from the epiblast of day E5.5 mouse embryos or NOD […] ES cells and were reprogrammed into ICM-like after culture in the mESM+KP/CH. While most colonies differentiated due to withdrawal of bFGF and change of medium (indicated by asterisks), ES-like colonies could be observed after 7-9 days and passaged via trypsinization. Within 2 passages ICM-like ES lines could be stably generated. (B) However, NOD […] which was derived from NOD-ES #43 by withdrawing KP/CH and growing the cells in […] conditions for over 8 passages (FIG. 6F), remained dependent on KP/CH molecules. Factors and growth conditions utilized to facilitate the identity conversion at each step are indicated in parenthesis. The pluripotency state was evaluated and defined based on Oct4 enhancer activity, inhibitor sensitivity (indicated in red or blue accordingly for each line). Identical results were obtained by using PD/CH inhibitor combination or KP alone (data not shown). Work described here further analyzed whether the exogenous stimuli defined in this study could interconvert the two distinct pluripotent states. This work first tested whether infection of previously characterized E5.5 derived 129 […] et al., 2007) with a Klf4 or c-Myc Dox inducible vectors could convert the EpiSCs to an ICM-like pluripotent state. […]

NOD ES cells = assay: Blastocyst injection (2N) and chimera generation from NOD ES lines; format: in vivo, mouse; settings: NOD ES line derived and propagated with the inhibitors; 2N injections
Description: Diploid B6D2F2 blastocysts (94-98 h after hCG injection) were placed in a drop of M2 medium under mineral oil. A flat-tip microinjection pipette with an internal diameter of 16 μm was used for cell injection using a Piezo micromanipulator (Primetech, Japan). About 10 cells were injected into the blastoceol cavity. After injection, the embryos were cultured in KSOM medium and placed in a 37° C. humidified CO2 chamber until transferred to recipient females. Ten to fifteen injected blastocysts were transferred to each uterine horn of 2.5 days post coitum pseudo-pregnant B6D2F1 females. For teratoma generation, 2*106 cells were injected subcutaneously into both flanks of recipient SCID mice, and tumors were harvested for sectioning 3-6 weeks after initial injection. […] were collagenased and manually dissociated into small pieces and injected subcutaneously in to immuno deficient mice.

O=C1Cc2c([nH]c3ccc(Br)cc23)-c2ccccc2N1 [Kenpaullone, 9-bromo-7,12-dihydroindolo[3,2-d][1]benzazepin-6(5H)-one]
conversion of EpiSCs into iPS cells (ICM-like pluripotency) (129 EpiSCs): conversion can be accomplished | % Chimerism (coat color) (NOD ES cells): 40-90% | Born chimeras (NOD ES cells): 17 | Germline Transmission (NOD ES cells): yes
